Measurements published in US20180149606A1, “XENON BASED DRUG PROTEIN BINDING ASSAY” (priority 2016, published 2018).
Values belong to the molecule of their own block, whether it stands above or below them.

What was measured:
albumin [1] = molecular target: T1, albumin (Bos taurus, UniProt P02769); assay: Xenon T2 relaxation measurement of drug binding to albumin (Tables 1 and 2); design: T2: unit not given here; settings: 10 μM albumin, 9.4 T
From the text: Hyperpolarized ^129Xe was generated in a rubidium cell hyperpolarizer, and bubbled into the solution.
Hyperpolarized ^129Xe was magnetized in a rubidium cell hyperpolarizer, and bubbled into the solution.
Target sequence in this assay (P02769 25-607): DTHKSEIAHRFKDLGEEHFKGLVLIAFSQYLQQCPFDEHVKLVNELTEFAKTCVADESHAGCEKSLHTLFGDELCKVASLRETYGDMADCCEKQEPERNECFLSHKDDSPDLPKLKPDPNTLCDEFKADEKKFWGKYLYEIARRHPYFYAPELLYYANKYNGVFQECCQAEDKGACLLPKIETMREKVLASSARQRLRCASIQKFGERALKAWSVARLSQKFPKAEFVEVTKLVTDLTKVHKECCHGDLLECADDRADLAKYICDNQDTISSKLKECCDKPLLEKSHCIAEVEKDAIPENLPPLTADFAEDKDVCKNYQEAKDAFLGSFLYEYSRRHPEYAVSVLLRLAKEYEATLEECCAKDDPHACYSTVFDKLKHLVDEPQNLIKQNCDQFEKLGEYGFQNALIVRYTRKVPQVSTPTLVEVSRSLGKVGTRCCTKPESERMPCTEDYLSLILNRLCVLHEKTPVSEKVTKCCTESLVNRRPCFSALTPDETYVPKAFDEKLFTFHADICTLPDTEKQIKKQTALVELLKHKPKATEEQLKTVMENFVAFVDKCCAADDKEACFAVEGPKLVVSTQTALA

albumin [2] = molecular target: T1, albumin; design: other: bovine serum albumin whenever possible, close to 25 degrees Celsius; highest; settings: bovine serum albumin whenever possible, close to 25 degrees Celsius; highest affinity site; cited from earlier work
bovine serum albumin = bovine serum albumin (Bos taurus, UniProt P02769); assay: Drug titration of xenon T2 in 10 μM fatty acid free bovine serum albumin; type: binding; settings: for effect on the xenon T2 of albumin: titration up to 1 mM drug, 9.4 T, 25 degrees Celsius
Protocol: The following experiments were performed with fatty acid free bovine serum albumin. It is important to note whether the albumin one uses contains fatty acids both because the fats will alter the binding affinity of a drug and also because they alter the relaxivity of albumin. The drug titrations were performed by preparing a 10 μM solution of bovine serum albumin into which aliquots of high concentration drug solutions were added. Most drugs, as well as all protein solutions, were dissolved in 1×PBS buffer. It is important to keep the pH of the solution constant when studying albumin because that protein has many different pH dependent conformations.
All solutions were made by dissolving the drugs in 1×PBS, with the exception of the tenoxicam solution. The T2 times of solutions containing high concentrations of drugs were measured. […] For the tenoxicam solution, about 400 μL of DMSO was added to a 10 mL solution of 1×PBS.
T2 times were measured using a standard CPMG pulse sequence with 100 ms long echo spacings. All experiments were performed at 9.4 Tesla using hyperpolarized xenon. This hyperpolarized xenon was prepared using a homebuilt spin exchange optical pumping based polarizer. The protein solution was attached to the polarizer's flow system and the pressurized to 60 psi. Xenon was bubbled into the protein solution at a rate of about 0.1 standard liters per minute. The gas mixture used contained 2% xenon, with the rest of the gases being helium and nitrogen. All experiments were performed at 25 degrees Celsius.
All protein solutions required the addition of an antifoaming agent in order to prevent the xenon from forcing the sample out of the NMR tube. […] 1-octanol was used as the antifoaming agent in this experiment. The concentration of 1-octanol used was 5 μL of alcohol per 10 mL of solution.

bovine serum albumin, sequence (P02769 25-607): as above

SMILES: Cn1c(=O)c2c(ncn2C)n(C)c1=O [Caffeine, caffeine]
Xenon relaxation time, T2 (albumin [1]; 16 μM caffeine): 0.54 ± 0.04 s | Xenon relaxation time, T2 (albumin [1]; 43 μM caffeine): 0.47 ± 0.04 s | Xenon relaxation time, T2 (albumin [1]; 56 μM caffeine): 0.63 ± 0.04 s | Xenon relaxation time, T2 (albumin [1]; 100 μM caffeine): 0.69 ± 0.03 s | Xenon relaxation time, T2 (albumin [1]; 500 μM caffeine): 0.51 ± 0.03 s | Xenon relaxation time, T2 (albumin [1]; 5000 μM caffeine): 0.67 ± 0.04 s | Xenon relaxation time, T2 (albumin [1]; 80000 μM caffeine): 1.07 ± 0.03 s | Highest Binding Affinity log10(Ka) (albumin [2]): 4.3

SMILES: CN1C(C(=O)Nc2ccccn2)=C(O)c2sccc2S1(=O)=O [Tenoxicam, tenoxicam]
Highest Binding Affinity log10(Ka) (albumin [2]): 5.4

SMILES: CCCCCCCC/C=C\CCCCCCCC(=O)[O-].[Na+] [Sodium Oleate, sodium oleate]
increase of xenon T2 (bovine serum albumin; three times as much sodium oleate as albumin, 10 μM albumin): 3 s | effect on the xenon T2 of albumin (bovine serum albumin; 10 μM BSA): increased | Highest Binding Affinity log10(Ka) (albumin [2]): 8.0

T2 (albumin [1]; 70 μM flucloxacillin): 0.91 ± 0.04 | T2 (albumin [1]; 200 μM flucloxacillin): 0.99 ± 0.04 | T2 (albumin [1]; 250 μM flucloxacillin): 1.53 ± 0.05 | T2 (albumin [1]; 450 μM flucloxacillin): 0.97 ± 0.03 | T2 (albumin [1]; 2000 μM flucloxacillin): 0.73 ± 0.04 | effect on the xenon T2 of albumin, repeated titration (bovine serum albumin; higher concentrations of drug (beyond 1 mM), 10 μM BSA): no effect | effect on the xenon T2 of albumin (bovine serum albumin; 10 μM BSA): much weaker effect
SMILES: Cc1onc(-c2c(F)cccc2Cl)c1C(=O)N[C@@H]1C(=O)N2[C@@H]1SC(C)(C)[C@@H]2C(=O)O [Flucloxacillin, flucloxacillin]
Highest Binding Affinity log10(Ka) (albumin [2]): 4.6
